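Step 1: Grow cells in 96-well plates. Step 2: Expose to compound for 48 hours at 5 concentrations. Step 3: Interpolate endpoints linearly; if unreached, use highest concentration. Here, GI50 denotes the concentration required for 50% inhibition of growth.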 Calls of active or inactive are those of the source. Rule as the data show it: active = GI50 up to about 1.1 µM and inactive = higher.
Experiments:
Test in all cases: growth of human tumour cells (NCI), 48 h
SN12C = test system: SN12C
BT-549 = test system: BT-549
Hs-578T = test system: Hs-578T
ACHN = test system: ACHN
786-0 = test system: 786-0
SNB-75 = test system: SNB-75
UACC-62 = test system: UACC-62
SK-OV-3 = test system: SK-OV-3
SW-620 = test system: SW-620
KM12 = test system: KM12
NCI-H23 = test system: NCI-H23
HT-29 = test system: HT-29
MDA-MB-231 = test system: MDA-MB-231
SK-MEL-28 = test system: SK-MEL-28
DU-145 = test system: DU-145
TK-10 = test system: TK-10
UACC-257 = test system: UACC-257
SF-539 = test system: SF-539
HL-60 = test system: HL-60

Structure (SMILES)	GI50 (SN12C)	GI50 (BT-549)	GI50 (Hs-578T)	GI50 (ACHN)	GI50 (786-0)	GI50 (SNB-75)	GI50 (UACC-62)	GI50 (SK-OV-3)	GI50 (SW-620)	GI50 (KM12)	GI50 (NCI-H23)	GI50 (HT-29)	GI50 (MDA-MB-231)	GI50 (SK-MEL-28)	GI50 (DU-145)	GI50 (TK-10)	GI50 (UACC-257)	GI50 (SF-539)	GI50 (HL-60)
COc1ccc(C(=O)/C=C/c2ccc(O)c(O)c2F)c(OC)c1	3.89 µM (inactive)	5.38 µM (inactive)	6.44 µM (inactive)	3.01 µM (inactive)	4.43 µM (inactive)	7.52 µM (inactive)	7.69 µM (inactive)	9.27 µM (inactive)	5.09 µM (inactive)	4.99 µM (inactive)	2.43 µM (inactive)	8.97 µM (inactive)	9.82 µM (inactive)	8.11 µM (inactive)	3.44 µM (inactive)	9.18 µM (inactive)	9.08 µM (inactive)	3.2 µM (inactive)	
CC1=NN(c2nc(N)nc(/C(C#N)=C\c3ccc([N+](=O)[O-])s3)n2)C(C)(C)C1	0.363 µM (active)	0.701 µM (active)	0.783 µM (active)	0.261 µM (active)	0.16 µM (active)	0.764 µM (active)	0.861 µM (active)	8.99 µM (inactive)	0.0736 µM (active)	0.316 µM (active)	0.76 µM (active)	0.265 µM (active)	0.22 µM (active)	0.383 µM (active)	0.24 µM (active)	0.507 µM (active)	0.211 µM (active)	0.169 µM (active)	
COc1ccc(NC(C)c2ccncc2)cc1 (stereo not given)	> 100 µM (inactive)	> 100 µM (inactive)	> 100 µM (inactive)	> 100 µM (inactive)	> 100 µM (inactive)	> 100 µM (inactive)		18 µM (inactive)	> 100 µM (inactive)	> 100 µM (inactive)	> 100 µM (inactive)	> 100 µM (inactive)	> 100 µM (inactive)	> 100 µM (inactive)	> 100 µM (inactive)	> 100 µM (inactive)	> 10 µM (inactive)	> 100 µM (inactive)	
Cc1c(Cl)nc(Nc2nc3ccccc3[nH]2)nc1Cl	41 µM (inactive)	> 100 µM (inactive)	27.2 µM (inactive)	> 100 µM (inactive)	59.4 µM (inactive)	> 100 µM (inactive)	> 100 µM (inactive)	> 100 µM (inactive)	31.2 µM (inactive)	17.1 µM (inactive)	92.9 µM (inactive)	25 µM (inactive)		40 µM (inactive)	39.4 µM (inactive)	> 100 µM (inactive)	> 100 µM (inactive)	> 100 µM (inactive)	> 100 µM (inactive)
C[C@@H]1CCC2[C@@H](C)C(=O)O[C@@H]3C4C[C@@H]1[C@@]23OO[C@@]4(C)O (stereo not given in full)	> 100 µM (inactive)	> 100 µM (inactive)	> 100 µM (inactive)	58.7 µM (inactive)	> 100 µM (inactive)	75.5 µM (inactive)	> 100 µM (inactive)		> 100 µM (inactive)	> 100 µM (inactive)	88.5 µM (inactive)	> 100 µM (inactive)	> 100 µM (inactive)	> 100 µM (inactive)	71.4 µM (inactive)	> 100 µM (inactive)	> 100 µM (inactive)	55.6 µM (inactive)	
Cc1cc(S(N)(=O)=O)c(SCc2nc(N)nc(N(C)C)n2)cc1Cl	> 10 µM (inactive)	> 10 µM (inactive)	> 10 µM (inactive)	> 10 µM (inactive)	> 10 µM (inactive)	> 10 µM (inactive)		> 10 µM (inactive)	> 10 µM (inactive)	> 10 µM (inactive)	> 10 µM (inactive)	> 10 µM (inactive)		> 10 µM (inactive)	> 10 µM (inactive)	> 10 µM (inactive)	> 10 µM (inactive)	> 10 µM (inactive)	> 10 µM (inactive)

— ChEMBL document CHEMBL1201862, “PubChem BioAssay data set” (2004)
